The subject of data set [1] is Crotalus atrox venom-enhanced tissue-type plasminogen activator initiated fibrinolysis. Put plainly: Thrombelastography of human plasma pretreated with iron and/or CO before venom exposure in the presence of tPA (Example II). The note with it: 100 IU/ml tPA; for time to maximum rate of thrombus generation (TMRTG): 100 μM CORM-2. The data set is classed as biochemical. The method, then: Two hundred mg of lyophilized, pooled venom was obtained from four western diamondback rattlesnakes (Crotalus atrox) for experimentation. Venom was reconstituted in calcium-free phosphate buffered saline (PBS, Sigma-Aldrich, Saint Louis, Mo., USA) at a concentration of 20 mg/ml, aliquoted, and then stored at −80° C. until experimentation at the University of Arizona.
Pooled normal plasma (George King Bio-Medical, Overland Park, Kans., USA) anticoagulated with sodium citrate was rapidly thawed at 37° C. and used for experimentation. To assess the effects of pretreatment of antifibrinolytic plasma proteins with iron, CO, or both, 1% additions of PBS, ferric chloride (FeCl3, 99.9% pure, Sigma-Aldrich, Saint Louis, Mo., USA) in PBS, or CORM-2 (tricarbonyldichlororuthenium (II) dimer, a CO releasing molecule, Sigma-Aldrich, Saint Louis, Mo., USA) dissolved in dimethyl sulfoxide (DMSO, Sigma-Aldrich, Saint Louis, Mo., USA) were used. […] Plasma was exposed to these various agents for at least 5 min prior to incubations with venom.
The final volume for all subsequently described plasma sample mixtures was 359.4 μl. Sample composition consisted of […] of plasma; 10 μl of tissue factor reagent (0.1% final concentration in distilled water; Diagnostica Stago S.A.S., Asnieres sur Seine, France), 10 μl of tissue type plasminogen activator (tPA, 580 IU/μg, Genentech, Inc., San Francisco, Calif., USA; 100 IU/ml final concentration) and 3.4 μl of PBS or venom (final concentration 0.5-2.0 μg/ml). […] The aforementioned plasma and venom mixtures were placed in a disposable cup in a computer-controlled Thrombelastograph® hemostasis system (Model 5000, Haemoscope Corp., Niles, Ill., USA) and incubated for 5 min at 37° C., with addition of 20 μl of 200 mM CaCl2) as the last step to initiate clotting. Data were collected at 37° C. until clot lysis time (CLT) was observed. The following elastic modulus-based parameters previously described (see, Nielsen V G, Pretorius E. Blood Coagul Fibrinolysis 2014; 25:695-702) were determined: time to maximum rate of thrombus generation (TMRTG): this is the time interval (min) observed prior to maximum speed of clot growth; maximum rate of thrombus generation (MRTG): this is the maximum velocity of clot growth observed (dynes/cm^2/sec); total thrombus generation (TTG, dynes/cm^2), the final viscoelastic resistance observed after clot formation; time to maximum rate of lysis (TMRL, min), maximum rate of lysis (MRL, dynes/cm^2/sec) and CLT (min). Lastly, to assess if venom had thrombolytic properties that were tPA independent, n=4 replicates were performed wherein no tPA was added and data were collected for 3 h.
Data are presented as mean±SD. All conditions unless otherwise indicated were represented by n=8 replicates. This number of replicates reliably provides a statistical power>0.8 for P<0.05 (see, Nielsen V G, Pretorius E. Blood Coagul Fibrinolysis 2014; 25:695-702). A commercially available statistical program was used for two-way analysis of variance (ANOVA) to assess interactions of venom and tPA on coagulation kinetics and interactions of iron and CO on venom-enhanced fibrinolysis (SigmaStat 3.1, Systat Software, Inc., San Jose, Calif., USA). Additional one-way ANOVA followed by Holm-Sidak post hoc analyses were performed to assess differences between the conditions. Graphics depicting viscoelastic data were generated with a commercially available program (OrigenPro 7.5, OrigenLab Corporation, Northampton, Mass., USA).

For data set [2] the following is noted: rabbit ear-bleed model; CORM-2 injected at 10 mg/kg (equivalent to 279 μM final concentration); cited from earlier work.
A further data set has as its system C. atrox venom. Put plainly: Isolated venom exposure to FeCl3, CORM-2 or iCORM-2, then thrombelastography in human plasma (Example VI). The format is biochemical, Crotalus atrox. The following applies: in words. The method, then:
C. atrox venom was obtained from the National Natural Toxins Research Center at Texas A&M University-Kingsville, Tex., USA. Venom was reconstituted in calcium-free phosphate buffered saline (PBS, Sigma-Aldrich, Saint Louis, Mo., USA), and stored at −80° C. Pooled human normal plasma anticoagulated with sodium citrate was obtained from George King Bio-Medical, Overland Park, Kans., USA. Ferric chloride (FeCl3, 99.9% pure), tricarbonyldichlororuthenium (II) dimer (CORM-2), and dimethyl sulfoxide (DMSO) were obtained from Sigma-Aldrich. The final concentrations of FeCl3 (dissolved in PBS) and CORM-2 (dissolved in DMSO) were 0-10 μM and 0-100 μM, respectively; these were the concentrations used in previous works involving the effects of modifying fibrinogen prior to venom exposure in plasma.
To increase the detection of effects of iron/CO on venom activity, the concentration of venom chosen for isolated exposure and for addition to plasma was twice the amount expected to eliminate coagulation based on previous work (see, Nielsen V G, Boyer L V. Iron and carbon monoxide attenuate degradation of plasmatic coagulation by Crotalus atrox venom. Blood Coagul Fibrinolysis. In press). A 1 ml quantity of a 200 μg/ml solution of venom in PBS was prepared for each condition subsequently presented. The conditions were: 1) 1% addition (v/v) of PBS and DMSO to PBS without venom; 2) 1% addition (v/v) of PBS and DMSO to PBS with venom; 3) 1% addition of FeCl3 and CORM-2 to PBS without venom; 4) 1% addition of FeCl3 and CORM-2 to PBS […]) 1% addition of FeCl3 and DMSO to PBS with venom; 6) 1% addition of CORM-2 to PBS with venom; and lastly, 7) 1% addition of PBS and iCORM-2 to PBS with venom. After 3 min of incubation at room temperature, 3.6 μl of solution from one of these conditions was placed into 326 μl of plasma and 10 μl of tissue factor reagent (0.1% final concentration in distilled water; Diagnostica Stago S.A.S., Asnieres sur Seine, France) in a disposable cup in a computer-controlled Thrombelastograph® hemostasis system (Model 5000, Haemonetics Inc., Braintree, Mass., USA). After test solution addition, 20 μl of 200 mM CaCl2 was immediately added to initiate clotting. Data were collected at 37° C. for 15 min. […] 2014; 25(8):801-805) were determined: time to maximum rate of thrombus generation (TMRTG): this is the time interval (min) observed prior to maximum speed of clot growth; maximum rate of thrombus generation (MRTG): this is the maximum velocity of clot growth observed (dynes/cm^2/sec); and total thrombus generation (TTG, dynes/cm^2), the final viscoelastic resistance observed after clot formation. […]

The next data set relates to Crotalus atrox venom. As to the kind of experiment: Thrombelastography of human plasma pretreated with iron and/or CO, then incubated with Crotalus atrox venom (Example I). The data set is classed as biochemical. The following applies: 0.5 μg/ml venom, 5 min incubation. As to the method: (§1) Two-hundred mg of lyophilized, pooled venom was obtained from four western diamondback rattlesnakes (Crotalus atrox) for experimentation. Venom was reconstituted in calcium-free phosphate buffered saline (PBS, Sigma-Aldrich, Saint Louis, Mo., USA) at a concentration of 20 mg/ml, aliquoted, and then stored at −80° C. until experimentation at the University of Arizona. Pooled human normal plasma (George King Bio-Medical, Overland Park, Kans., USA) anticoagulated with sodium citrate was rapidly thawed at 37° C. and used for experimentation. To assess the effects of pretreatment of fibrinogen with iron, CO, or both, 1% additions of PBS, ferric chloride (FeCl3, 99.9% pure, Sigma-Aldrich, Saint Louis, Mo., USA) in PBS, or CORM-2 (tricarbonyldichlororuthenium (II) dimer, a CO releasing molecule, Sigma-Aldrich, Saint Louis, Mo., USA) dissolved in dimethyl sulfoxide (DMSO, Sigma-Aldrich, Saint Louis, Mo., USA). The final concentrations of FeCl3 and CORM-2 were 10 μM and 100 μM, respectively; these concentrations are associated with nearly maximal augmenting effects on coagulation kinetics (see, Nielsen V G, et al., Blood Coagul Fibrinolysis 2014; 25:695-702). Plasma was exposed to these various agents for at least 5 min prior to incubations with venom.
(§2) The final volume for all subsequently described plasma sample mixtures was 359.4 μl. Sample composition consisted of 326 μl of plasma; 10 μl of tissue factor reagent (0.1% final concentration in distilled water; Diagnostica Stago S.A.S., Asnieres sur Seine, France) and 3.4 μl of PBS or venom (final concentration 0.5 μg/ml). […] The aforementioned plasma and venom mixtures were placed in a disposable cup in a computer-controlled Thrombelastograph® hemostasis system (Model 5000, Haemoscope Corp., Niles, Ill., USA) and incubated for 5 or 20 min at 37° C., with addition of 20 μl of 200 mM CaCl2) as the last step to initiate clotting. Data were collected at 37° C. for 15 min after 5 min of incubation, whereas samples incubated with venom for 20 min had data collected for 30 min, given the prolonged onset of coagulation and diminished rate of thrombus formation. The following elastic modulus-based parameters previously described (see, Nielsen, et al., 2014, Blood Coagul. Fibrinolysis 25:695-702; Nielsen, et al., 2011, Blood Coagul. Fibrinolysis 22: 443-447); Nielsen V G, et al., Blood Coagul Fibrinolysis 2014; 25:845-850) were determined: time to maximum rate of thrombus generation (TMRTG): this is the time interval (min) observed prior to maximum speed of clot growth; maximum rate of thrombus generation (MRTG): this is the maximum velocity of clot growth observed (dynes/cm^2/sec); and total thrombus generation (TTG, dynes/cm^2), the final viscoelastic resistance observed after clot formation.
(§3) Data are presented as mean+SD. A commercially available statistical program was used for one-way analysis of variance followed by Holm-Sidak post hoc analyses (SigmaStat 3.1, Systat Software, Inc., San Jose, Calif., USA). Graphics depicting viscoelastic data were generated with a commercially available program (OrigenPro 7.5, OrigenLab Corporation, Northampton, Mass., USA; CorelDRAW12, Corel Corporation, Mountain View, Calif., USA).

The test system of a further data set is human plasma. As to the kind of experiment: Thrombelastography of venom naïve human plasma with iron and/or CO addition (Example I). The data set is classed as biochemical. The following applies: baseline (venom naïve); 10 μM FeCl3 and/or 100 μM CORM-2; compared to plasma without any additions. As to the method:
as §1, §2, §3

[3] abbreviates: 10 μM ferric chloride or 100 μM CORM-2, vs matched samples without or with venom exposure (0.5 μg/ml).

In the case of `[C-]#[O+].[C-]#[O+].[C-]#[O+].[C-]#[O+].[C-]#[O+].[C-]#[O+].[Cl][Ru][Cl].[Cl][Ru][Cl]` [CORM-2, tricarbonyldichlororuthenium (II) dimer], the “maximum rate of lysis (MRL)” value is recorded as “reduced MRL to control values” in data set [1] (100 μM CORM-2 addition followed by venom exposure (0.5 μg/ml)) and “significantly increased” in data set [1] (100 μM CORM-2 addition, without venom). Besides, the adverse effects entry in data set [2] is “without adverse effects noted”. Further, the “effects on C. atrox venom activity on plasmatic coagulation” value in the data set on C. atrox venom (isolated venom exposure) was “completely inhibited”. Also, the “coagulation kinetic parameters of plasma after addition of PBS with venom exposed to the agent” value in the data set on C. atrox venom (venom 2 μg/ml final, 10 μM FeCl3, 100 μM CORM-2 or iCORM-2) is “not different from PBS/DMSO exposed plasma”.

As to “tricarbonyldichlororuthenium (II) dimer [CORM-2]”, in data set [1] (setting [3]), the “clot lysis time (CLT)” value is on record as “significantly greater”, the “maximum rate of thrombus generation (MRTG)” value is on record as “significantly greater”, the “time to maximum rate of lysis (TMRL)” value is “significantly greater” and the “total thrombus generation (TTG)” value was “greater”. For the same compound, the “time to maximum rate of thrombus generation (TMRTG)” value (shortened to “time to maximum rate … (TMRTG)”) in data set [1] (venom exposed plasma (0.5 μg/ml)) is “significantly less”. Further, the “time to maximum rate … (TMRTG)” value in data set [1] (venom naïve samples) is “did not significantly affect”. Further, in the data set on Crotalus atrox venom (vs matched venom naïve samples), the “maximum rate of thrombus generation (MRTG), change on venom exposure” value is listed as “significantly decreased”. Further, in the data set with Crotalus atrox venom (vs plasma without additions exposed to venom), the “maximum rate of thrombus generation (MRTG)” value was “significantly greater”. In the data set on Crotalus atrox venom (vs samples without CO added), the “clot strength (TTG)” value is “significantly greater”. Further, in the data set on human plasma, the “maximum rate of thrombus generation (MRTG)” value is “significant increase”, the “time to maximum rate … (TMRTG)” value is “no change” and the “total thrombus generation (TTG)” value is on record as “significant increase”.

The record behind these values is patent publication US10828326B2, “Compositions and methods for treating and preventing venom related poisoning” (priority 2015, dated 2020).
